Measured values reported in article PMC12191008, “Heterostilbene Carbamates with Selective and Remarkable Butyrylcholinesterase Inhibition: Computational Study and Physico-Chemical Properties” (Biomolecules, 2025).
Values joined by “and” are separate entries in the source; they are usually repeats but may differ in a detail not shown here. Equal entries are not always repeated. Where two headings read alike, the source gives them in different places.

Legend:
[1] = target: BChE (EC 3.1.1.8, equine serum) (Equus caballus, UniProt P81908); test: In vitro ChE activity assay (modified Ellman), BChE; assay type: biochemical; details: for inhibition at 500 µM / inhibition at 50 µM: read-out: BChE % Inhibition
[2] = test system: LPS-stimulated TNFα production in PBMCs; test: LPS-stimulated TNFα production in PBMCs (ELISA); assay type: cell-based; details: Homo sapiens, PBMC, read-out: IC50, inhibition of LPS-stimulated TNFα production
Description: The effect of compounds on lipopolysaccharide (LPS)-stimulated tumor necrosis factor alpha (TNFα) production was evaluated as described previously. In short, peripheral blood mononuclear cells (PBMCs) were isolated from buffy coats obtained from healthy adult volunteers and resuspended in RPMI1640 medium (Capricorn Scientific, Ebsdorfergrund, Germany) supplemented with 10% heat-inactivated FBS (Biowest, Bradenton, FL, USA), 1% GlutaMAX (Gibco, Waltham, MA, USA), and 1% antibiotic–antimycotic (Gibco). Then, 2 × 10^5 PBMCs were seeded per well of a 96-well plate. […]
TNFα concentration in supernatants was measured by ELISA using antibodies and recombinant human TNFα protein (standard) from R&D Systems. […] Finally, after the plates were incubated with streptavidin-HRP (Invitrogen, Waltham, MA, USA), chemiluminescence ELISA Substrate (Roche, Basel, Switzerland) was added to the wells, and luminescence was measured using an EnVision 2105 multilabel reader (Revvity, Waltham, MA, USA). Measured luminescence was used to calculate concentrations of TNFα in the supernatants by interpolation from the standard curve. Percentages of inhibition were calculated from obtained cytokine concentrations, and IC50 values were determined using GraphPad Prism v9 software with a nonlinear regression curve fit (four parameters with variable slope).

[3] = at maximal concentration tested
[4] = at maximal concentration tested, 50 μM

Chain of BChE (EC 3.1.1.8, equine serum) (P81908 whole entry): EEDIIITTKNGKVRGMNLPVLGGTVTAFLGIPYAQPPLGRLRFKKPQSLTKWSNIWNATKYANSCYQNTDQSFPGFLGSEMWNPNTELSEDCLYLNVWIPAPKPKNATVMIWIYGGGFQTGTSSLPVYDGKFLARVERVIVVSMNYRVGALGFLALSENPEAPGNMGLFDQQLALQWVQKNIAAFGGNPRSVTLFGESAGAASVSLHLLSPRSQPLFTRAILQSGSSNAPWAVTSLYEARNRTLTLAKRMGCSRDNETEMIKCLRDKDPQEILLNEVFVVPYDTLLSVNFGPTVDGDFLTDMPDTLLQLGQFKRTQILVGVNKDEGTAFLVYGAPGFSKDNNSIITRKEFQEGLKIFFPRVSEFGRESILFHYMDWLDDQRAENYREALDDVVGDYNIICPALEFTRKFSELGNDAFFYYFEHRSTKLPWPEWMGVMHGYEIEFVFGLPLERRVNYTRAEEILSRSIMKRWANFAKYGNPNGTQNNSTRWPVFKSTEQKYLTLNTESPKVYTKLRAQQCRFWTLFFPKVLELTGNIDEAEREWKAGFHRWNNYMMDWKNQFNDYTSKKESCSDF

CNC(=O)Oc1ccccc1/C=C/c1cccs1 [Compound 1, (E)-2-(2-(thiophen-2-yl)vinyl)phenyl methylcarbamate]
inhibition at 10 µM [1, 3]: 84.4 ± 1.18% | IC50 ([1]; read-out: BChE IC50): 0.5 µM

CNC(=O)Oc1ccc(F)cc1/C=C/c1cccs1 [Compound 2, (E)-4-fluoro-2-(2-(thiophen-2-yl)vinyl)phenyl methylcarbamate]
inhibition at 100 µM [1, 3]: 84.7 ± 3.2% | IC50 ([1]; read-out: BChE IC50): 3.74 µM

CNC(=O)Oc1ccc(OC)cc1/C=C/c1cccs1 [Compound 3, (E)-4-methoxy-2-(2-(thiophen-2-yl)vinyl)phenyl methylcarbamate]
inhibition at 500 µM ([1]; at maximal concentration tested, 500 μM): 82.2 ± 2% | IC50 ([1]; read-out: BChE IC50): 150 µM

CNC(=O)Oc1ccc(C)cc1/C=C/c1cccs1 [Compound 4, (E)-4-methyl-2-(2-(thiophen-2-yl)vinyl)phenyl methylcarbamate]
IC50 ([1]; BChE IC50): 1.1 µM and 0.913 µM | inhibition at 10 µM [1, 3]: 85.4 ± 2.29%

CNC(=O)Oc1ccccc1/C=C/c1ccc(C)s1 [Compound 5, (E)-2-(2-(5-methylthiophen-2-yl)vinyl)phenyl methylcarbamate]
IC50 ([1]; BChE IC50): 0.913 µM | inhibition at 5 µM ([1]; at maximal concentration tested, 5 μM): 74.8 ± 2.36% | IC50 ([1]; read-out: BChE IC50): 1.1 µM

CNC(=O)Oc1ccc(F)cc1/C=C/c1ccc(C)s1 [Compound 6, (E)-4-fluoro-2-(2-(5-methylthiophen-2-yl)vinyl)phenyl methylcarbamate]
IC50 ([1]; BChE IC50): 14.1 µM | inhibition at 50 µM [1]: 74 ± 3.2%

CNC(=O)Oc1ccc(Cl)cc1/C=C/c1ccc(C)s1 [Compound 7, (E)-4-chloro-2-(2-(5-methylthiophen-2-yl)vinyl)phenyl methylcarbamate]
inhibition at 100 µM [1, 3]: 69.8 ± 1.15% | IC50 ([1]; read-out: BChE IC50): 30.4 µM

CNC(=O)Oc1ccc(Cl)cc1C=Cc1ncc(C)s1 [Compound 8, (E) and (Z)-4-chloro-2-(2-(5-methylthiazol-2-yl)vinyl)phenyl methylcarbamate]
IC50 ([1]; BChE IC50): 59.1 µM | inhibition at 500 µM [1]: 87.21 ± 0.47%

CCN(C)C(=O)Oc1ccccc1/C=C/c1cccs1 [Compound 9, (E)-2-(2-(thiophen-2-yl)vinyl)phenyl ethyl(methyl)carbamate]
inhibition at 10 µM [1, 3]: 83.9 ± 1.77% | IC50 ([1]; read-out: BChE IC50): 0.583 µM

CCN(C)C(=O)Oc1ccc(F)cc1/C=C/c1cccs1 [Compound 10, (E)-4-fluoro-2-(2-(thiophen-2-yl)vinyl)phenyl ethyl(methyl)carbamate]
inhibition at 27 µM ([1]; at maximal concentration tested, 27 μM): 83.5 ± 1.49% | IC50 ([1]; read-out: BChE IC50): 3.08 µM

CCN(C)C(=O)Oc1ccc(C)cc1/C=C/c1cccs1 [Compound 11, (E)-4-methyl-2-(2-(thiophen-2-yl)vinyl)phenyl ethyl(methyl)carbamate]
inhibition at 10 µM [1, 3]: 82.8 ± 1.57% | IC50 ([1]; read-out: BChE IC50): 1.54 µM

CCN(C)C(=O)Oc1cccc(/C=C/c2cccs2)c1 [Compound 12, (E)-3-(2-(thiophen-2-yl)vinyl)phenyl ethyl(methyl)carbamate]
IC50 ([1]; BChE IC50): 1.5 µM | inhibition at 50 µM [1, 4]: 83.2 ± 0.84% | IC50 ([1]; read-out: BChE IC50): 1.07 µM

CCN(C)C(=O)Oc1cc(OC)ccc1/C=C/c1cccs1 [Compound 13, (E)-5-methoxy-2-(2-(thiophen-2-yl)vinyl)phenyl ethyl(methyl)carbamate]
inhibition at 25 µM [1, 3]: 84.4 ± 2.29% | IC50 ([1]; read-out: BChE IC50): 1.88 µM

CCN(C)C(=O)Oc1ccccc1/C=C/c1ccc(C)s1 [Compound 14, (E)-2-(2-(5-methylthiophen-2-yl)vinyl)phenyl ethyl(methyl)carbamate]
IC50 ([1]; BChE IC50): 85.1 µM | inhibition at 250 µM ([1]; at maximal concentration tested, 250 μM): 70 ± 0.8% | IC50 ([1]; read-out: BChE IC50): 90 µM

O=C(Oc1ccccc1/C=C/c1cccs1)N1CCOCC1 [Compound 16, (E)-2-(2-(thiophen-2-yl)vinyl)phenyl morpholine-4-carboxylate]
IC50 ([2]; average, PBMCs from two donors): 31.6 µM | inhibition at 1 µM ([1]; at maximal concentration tested, 1 μM): 84.25 ± 0.82% | IC50 ([1]; read-out: BChE IC50): 0.0265 µM

O=C(Oc1ccc(F)cc1/C=C/c1cccs1)N1CCOCC1 [Compound 17, (E)-4-fluoro-2-(2-(thiophen-2-yl)vinyl)phenyl morpholine-4-carboxylate]
inhibition at 25 µM [1, 3]: 82.3 ± 2.44% | IC50 ([1]; read-out: BChE IC50): 0.645 µM

Cc1ccc(OC(=O)N2CCOCC2)c(/C=C/c2cccs2)c1 [Compound 18, (E)-4-methyl-2-(2-(thiophen-2-yl)vinyl)phenyl morpholine-4-carboxylate]
inhibition at 25 µM [1, 3]: 87.5 ± 1.31% | IC50 ([1]; read-out: BChE IC50): 0.43 µM

O=C(Oc1cccc(/C=C/c2cccs2)c1)N1CCOCC1 [Compound 19, (E)-3-(2-(thiophen-2-yl)vinyl)phenyl morpholine-4-carboxylate]
inhibition at 50 µM [1, 4]: 79.7 ± 2.51% | IC50 ([1]; read-out: BChE IC50): 2.04 µM

C[C@@H]1C[C@H]2[C@@H]3CCC4=CC(=O)C=C[C@]4(C)[C@@]3(F)[C@@H](O)C[C@]2(C)[C@@]1(O)C(=O)CO [Dexamethasone, reference compound]
IC50 ([2]; PBMCs, reference compound): 0.0035 µM
